Assay results taken from article PMC9490236, “Accurate de novo design of membrane-traversing macrocycles” (Cell, 2022).
Where a SMILES comes first, the peptide text is derived from it. [ ]: non-standard residue; d: D form. NMeL = CN[C@@H](CC(C)C)C(=O)O; dNMeL = CN[C@H](CC(C)C)C(=O)O; NMeA = CN[C@@H](C)C(=O)O; dNMeA = CN[C@H](C)C(=O)O

Key:
[1] = Caco-2 permeability assay (apical to basolateral); assay type: in vitro ADME, human; details: Caco-2, Caco_Papp_Average
Procedure: (§1) Human colon adenocarcinoma-derived Caco-2 cell line was used as a model system to investigate the intestinal epithelial permeability of our designs. Caco-2 cells were propagated in T125 flasks (Corning, Merck) using Dulbecco’s modified Eagle medium supplemented with 10% (v/v) fetal bovine serum, 1% (v/v) nonessential amino acids, and 1% (v/v) penicillin-streptomycin (Gibco, Thermo Fisher Scientific) at 37°C in an atmosphere of 5% CO2. Cells were subcultured when they reached 80% confluence.
(§2) The permeability of designed peptides was evaluated using an accelerated 6-day Caco-2 permeability assay as described previously ([Sevin et al., 2013]). In brief, cells were seeded into the 12-well Transwell plates with 0.4 μm polyester membrane inserts (Corning, Merck) to give 4.0 × 10^5 cells/well. The complete assay medium contained Dulbecco’s modified Eagle medium supplemented with 10% (v/v) fetal bovine serum, 1% (v/v) nonessential amino acids, and 0.4 μg/mL puromycin. The medium in plates was renewed every second day. The inserts received 0.75 mL of assay medium in the upper compartment (apical chamber) and 1.5 mL in the bottom compartment (basolateral chamber) individually. After 6-day incubation or until the cells formed monolayers, the medium in the apical and basolateral chamber was replaced with peptide solutions at 50 μM or Hanks' Balanced Salt Solution (HBSS), separately. The plates were incubated for 90 min at 37°C on an orbital shaker (60 rpm). The peptide concentration of solutions in the apical and basolateral compartments was subsequently quantified using LC-MS (Qstar Elite, AB Sciex Australia) to evaluate the transmembrane flux of peptides in the apical-to-basolateral direction. Membrane integrity of the Caco-2 cell monolayer was validated using trans-epithelial electrical resistance (TEER) measurements before and after the assays. Atenolol and quinidine were included as negative and positive controls in all assays.

Caco-2 cells = assay: Caco-2 permeability assay (apical to basolateral); assay type: in vitro ADME, human; details: Caco-2
Procedure: as §1, §2

[2] = PAMPA
in vitro = details: PAMPA, PAMPA_Papp_Avg

| SMILES | Papp A→B [1] | Caco_R1 (Caco-2 cells) | Caco_R3 (Caco-2 cells) | PAMPA_R1 [2] | PAMPA_R3 [2] | Papp (in vitro) |
| --- | --- | --- | --- | --- | --- | --- |
| CC(C)C[C@@H]1NC(=O)[C@H](Cc2ccccc2)NC(=O)[C@@H](CC(C)C)NC(=O)[C@H]2CCCN2C(=O)[C@H](C(C)C)NC(=O)[C@@H](CC(C)C)NC(=O)[C@H]2CCCN2C(=O)[C@@H]2CCCN2C1=O [Design D8.5.p2, PHE LEU PRO DPRO DLEU VAL DPRO DLEU] (cyclo(FLP[dP][dL]V[dP][dL])) | 21.4 ×10⁻⁶ cm/s | 17.839 | 20.36 | 5.46E-06 | 5.67E-06 | 5.8 ×10⁻⁶ cm/s |
| CC(C)C[C@@H]1NC(=O)[C@H]2CCCN2C(=O)[C@@H]2CCCN2C(=O)[C@H](CC(C)C)NC(=O)[C@@H](CC(C)C)NC(=O)[C@@H](C)N(C)C(=O)[C@@H](C)N(C)C(=O)[C@@H](C(C)C)NC1=O [Design D8.6, LEU PRO DPRO LEU DVAL *DALA *DALA DLEU] (cyclo(LP[dP]L[dV][dNMeA][dNMeA][dL])) | 0.737 ×10⁻⁶ cm/s | 0.86 | 0.45 | 3.54E-06 | 3.44E-06 | 3.35 ×10⁻⁶ cm/s |
| CC[C@@H](C)[C@H]1NC(=O)[C@@H](CC(C)C)N(C)C(=O)[C@@H]2CCCN2C(=O)[C@@H]([C@H](C)CC)NC(=O)[C@@H](CC(C)C)NC(=O)[C@@H](CC(C)C)N(C)C(=O)[C@@H]2CCCN2C(=O)[C@@H](C(C)C)NC1=O [Design D8.8, PRO *DLEU DLEU DILE PRO *DLEU DILE DVAL] (cyclo(P[dNMeL][dI][dV]P[dNMeL][dL][dI])) | 23 ×10⁻⁶ cm/s | 20.91 | 24.11 | 9.54E-06 | 3.47E-06 | 5.9 ×10⁻⁶ cm/s |
| CC(C)C[C@@H]1C(=O)N[C@H](CC(C)C)C(=O)N2CCC[C@@H]2C(=O)N2CCC[C@@H]2C(=O)N(C)[C@@H](C)C(=O)N[C@H](Cc2ccccc2)C(=O)N[C@@H](C)C(=O)N(C)[C@@H](CC(C)C)C(=O)N1C [Design D8.10, DPRO DPRO *ALA DPHE ALA *LEU *DLEU DLEU] (cyclo(A[NMeL][dNMeL][dL][dP][dP][NMeA][dF])) | 3.91 ×10⁻⁶ cm/s | 3.8 | 3.36 | 8.77E-07 | 1.78E-06 | 1.23 ×10⁻⁶ cm/s |
| CC[C@H](C)[C@@H]1NC(=O)[C@H]2CCCN2C(=O)[C@@H]2CCCN2C(=O)[C@@H](C(C)C)NC(=O)[C@@H](C)N(C)C(=O)[C@H](C)N(C)C(=O)[C@@H](CC(C)C)N(C)C(=O)[C@@H](C(C)C)NC1=O [Design D8.26, DVAL *DLEU *ALA *DALA DVAL PRO DPRO ILE] (cyclo(I[dV][dNMeL][NMeA][dNMeA][dV]P[dP])) | 0.647 ×10⁻⁶ cm/s | 0.79 | 0.94 | 1.58E-07 | 2.69E-07 | 0.255 ×10⁻⁶ cm/s |
| CC(C)C[C@@H]1NC(=O)[C@H](CC(C)C)N(C)C(=O)[C@H]2CCCN2C(=O)[C@@H](C)NC(=O)[C@@H](C)N(C)C(=O)[C@@H](C(C)C)NC(=O)[C@@H](CC(C)C)N(C)C(=O)[C@@H]2CCCN2C1=O [Design D8.30, DALA DPRO *LEU LEU PRO *DLEU DVAL *DALA] (cyclo(LP[dNMeL][dV][dNMeA][dA][dP][NMeL])) | 3.97 ×10⁻⁶ cm/s | 4.11 | 2.89 | 4.61E-06 | 4.25E-06 | 4.32 ×10⁻⁶ cm/s |
| CC(C)C[C@@H]1C(=O)N[C@H](CC(C)C)C(=O)N2CCC[C@@H]2C(=O)N2CCC[C@@H]2C(=O)N(C)[C@@H](CC(C)C)C(=O)N[C@H](CC(C)C)C(=O)N2CCC[C@@H]2C(=O)N2CCC[C@H]2C(=O)N1C [Design D8.32, DPRO DPRO *LEU DLEU DPRO PRO *DLEU DLEU] (cyclo([dNMeL][dL][dP][dP][NMeL][dL][dP]P)) | 2.73 ×10⁻⁶ cm/s | 2.78 | 2.54 | 5.82E-06 | 5.16E-06 | 5.37 ×10⁻⁶ cm/s |
